How the values were obtained:
ISC-enriched organoids [1] = assay: Primary screen, 384-well 2.5-D organoid differentiation (ENR+CD, 6 days): basal lysozyme secretion (LYZ.NS); assay type: cell-based, murine; settings: for Dose.FC.LYZ.NS (log 2 fold change, basal lysozyme secretion): vs plate median
Text: (§1) High-throughput screening.

ISC-enriched organoids [2] = assay: Primary screen, 384-well 2.5-D organoid differentiation (ENR+CD, 6 days, Target Selective Inhibitor Library, vs whole-plate median): ATP (CellTiter-Glo 3D, CTG); settings: for Dose.FC.CTG (log 2 fold change, ATP): vs plate median
ISC-enriched organoids [3] = assay: Primary screen, 384-well 2.5-D organoid differentiation (ENR+CD, 6 days): carbachol-induced lysozyme secretion (LYZ.S); assay type: cell-based, murine; settings: vs plate median
Text: as §1

Structure (SMILES) | Z.LYZ.NS (standard z score) (ISC-enriched organoids [1]; dose 0.08 uM) | Dose.FC.LYZ.NS (log 2 fold change, basal lysozyme secretion) (ISC-enriched organoids [1]; dose 0.08 uM) | Z.LYZ.NS (standard z score) (ISC-enriched organoids [1]; dose 0.40 uM) | Dose.FC.LYZ.NS (log 2 fold change, basal lysozyme secretion) (ISC-enriched organoids [1]; dose 0.40 uM) | Z.LYZ.NS (standard z score) (ISC-enriched organoids [1]; dose 2.00 uM) | Dose.FC.LYZ.NS (log 2 fold change, basal lysozyme secretion) (ISC-enriched organoids [1]; dose 2.00 uM) | Z.LYZ.NS (standard z score) (ISC-enriched organoids [1]; dose 10.00 uM) | Dose.FC.LYZ.NS (log 2 fold change, basal lysozyme secretion) (ISC-enriched organoids [1]; dose 10.00 uM) | Z.CTG (standard z score) (ISC-enriched organoids [2]; dose 0.08 uM) | Dose.FC.CTG (log 2 fold change, ATP) (ISC-enriched organoids [2]; dose 0.08 uM) | Z.CTG (standard z score) (ISC-enriched organoids [2]; dose 0.40 uM) | Dose.FC.CTG (log 2 fold change, ATP) (ISC-enriched organoids [2]; dose 0.40 uM) | Z.CTG (standard z score) (ISC-enriched organoids [2]; dose 2.00 uM) | Dose.FC.CTG (log 2 fold change, ATP) (ISC-enriched organoids [2]; dose 2.00 uM) | Z.CTG (standard z score) (ISC-enriched organoids [2]; dose 10.00 uM) | Dose.FC.CTG (log 2 fold change, ATP) (ISC-enriched organoids [2]; dose 10.00 uM) | Dose.FC.LYZ.S (log 2 fold change, carbachol-induced lysozyme secretion) (ISC-enriched organoids [3]; dose 0.08 uM) | Dose.FC.LYZ.S (log 2 fold change, carbachol-induced lysozyme secretion) (ISC-enriched organoids [3]; dose 0.40 uM) | Dose.FC.LYZ.S (log 2 fold change, carbachol-induced lysozyme secretion) (ISC-enriched organoids [3]; dose 2.00 uM) | Dose.FC.LYZ.S (log 2 fold change, carbachol-induced lysozyme secretion) (ISC-enriched organoids [3]; dose 10.00 uM)
CCCCNc1ncc(-c2ccc(CN3CCOCC3)cn2)c(NC2CCC(O)CC2)n1 (stereo not drawn) [UNC2250] | 1.005 | 0.115 | 0.587 | 0.067 | 0.744 | 0.085 | −1.336 | −0.153 | 0.633 | 0.265 | 0.667 | 0.279 | 0.250 | 0.105 | −0.153 | −0.064 | 0.142 | 0.113 | 0.134 | −0.205
CS(=O)(=O)c1ccc(-c2cnc(N)c(C(=O)Nc3ccccc3)n2)cc1 [VE-821] | 0.924 | 0.106 | 0.544 | 0.063 | 0.901 | 0.103 | −2.475 | −0.284 | 0.508 | 0.213 | 0.311 | 0.130 | −0.328 | −0.137 | −2.006 | −0.840 | 0.130 | 0.089 | −0.004 | −0.429
Cc1cc(Nc2cc(N3CCN(C)CC3)nc(Sc3ccc(NC(=O)C4CC4)cc3)n2)n[nH]1 [VX-680 (Tozasertib, MK-0457)] | −0.371 | −0.043 | −1.317 | −0.151 | −1.450 | −0.166 | −2.069 | −0.238 | −0.359 | −0.150 | −1.425 | −0.596 | −1.686 | −0.706 | −2.291 | −0.959 | −0.078 | −0.245 | −0.308 | −0.342
Cc1ccc(NC(=O)C2(c3ccc4c(c3)OC(F)(F)O4)CC2)nc1-c1cccc(C(=O)O)c1 [VX-809 (Lumacaftor)] | 0.634 | 0.073 | −0.353 | −0.041 | −0.279 | −0.032 | −0.713 | −0.082 | 0.423 | 0.177 | −0.149 | −0.062 | −0.346 | −0.145 | 0.076 | 0.032 | 0.218 | −0.027 | −0.073 | −0.117
COc1cc2/c(=N/c3ccc(Br)cc3F)nc[nH]c2cc1OCC1CCN(C)CC1 [Vandetanib (ZD6474)] | −0.594 | −0.068 | −0.792 | −0.091 | −2.356 | −0.271 | −2.594 | −0.298 | −1.547 | −0.648 | −0.874 | −0.366 | −2.089 | −0.874 | −2.880 | −1.206 | −0.139 | −0.054 | −0.384 | −0.494
C[C@]1(c2nc3c(C(N)=O)cccc3[nH]2)CCCN1 [Veliparib (ABT-888)] | 0.649 | 0.075 | 1.211 | 0.139 | 0.203 | 0.023 | −0.537 | −0.062 | 0.307 | 0.128 | 0.132 | 0.055 | −0.057 | −0.024 | −0.521 | −0.218 | 0.105 | 0.179 | −0.016 | −0.136
CCCS(=O)(=O)Nc1ccc(F)c(C(=O)c2c[nH]c3ncc(-c4ccc(Cl)cc4)cc23)c1F [Vemurafenib (PLX4032, RG7204)] | 0.786 | 0.090 | 0.462 | 0.053 | 0.411 | 0.047 | 0.263 | 0.030 | 0.297 | 0.124 | −0.195 | −0.082 | −0.014 | −0.006 | 0.073 | 0.030 | 0.120 | 0.150 | 0.055 | 0.022
N#C[C@@H]1CCCN1C(=O)CNC12CC3CC(CC(O)(C3)C1)C2 [Vildagliptin (LAF-237)] | 1.285 | 0.148 | 2.004 | 0.230 | 1.478 | 0.170 | 0.846 | 0.097 | 0.553 | 0.232 | 0.547 | 0.229 | 0.358 | 0.150 | 0.811 | 0.339 | 0.099 | 0.113 | 0.038 | 0.013
c1ccc(NCc2ccc(CNc3ccccn3)cc2)nc1 [WZ811] | 1.337 | 0.154 | 0.162 | 0.019 | 0.815 | 0.094 | 0.045 | 0.005 | 0.334 | 0.140 | −0.082 | −0.034 | 0.184 | 0.077 | 0.104 | 0.044 | 0.296 | 0.007 | 0.074 | 0.019

Reference: patent US20230398130A1, “METHODS AND COMPOSITIONS FOR DIFFERENTIATING STEM CELLS” (Massachusetts Institute of Technology, priority 2020, published 2023)
